Measurements as given in article PMC10385824, “Antiproliferative and Tubulin-Destabilising Effects of 3-(Prop-1-en-2-yl)azetidin-2-Ones and Related Compounds in MCF-7 and MDA-MB-231 Breast Cancer Cells” (Pharmaceuticals, 2023).
Read-outs that look alike come from different tables or passages of the source.

Assays:
SF295 = assay: NCI-60 SRB screen, CNS cancer; assay type: cell-based, human; conditions: SF-295, 48 h
[1] = test system: purified bovine brain tubulin; assay: Tubulin polymerization assay (light scattering, BK006 kit); assay type: biochemical; conditions: compound at 10 μM; relative to vehicle
Outline: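 Compounds tested at 10 µM against vehicle (1% DMSO or EtOH) with bovine brain tubulin, 3 mg/mL, in pH 6.9 PIPES buffer containing 1 mM GTP and 10% glycerol, 37 °C. Light scattering at 340 nm tracked microtubule formation; average of two independent runs reported.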

EKVX = assay: NCI-60 SRB screen, non-small cell lung cancer; assay type: cell-based, human; conditions: one dose 10 µM, 48 h
ACHN = assay: NCI-60 SRB screen, renal cancer; assay type: cell-based, human; conditions: 48 h
RPMI-8226 = assay: NCI-60 SRB screen, leukemia; assay type: cell-based, human; conditions: RPMI-8226, 48 h
SN12C = assay: NCI-60 SRB screen, renal cancer; assay type: cell-based, human; conditions: 48 h
OVCAR-8 = assay: NCI-60 SRB screen, ovarian cancer; assay type: cell-based, human; conditions: OVCAR-8, 48 h
SK-OV-3 = assay: NCI-60 SRB screen, ovarian cancer; assay type: cell-based, human; conditions: SK-OV-3, 48 h
HS 578T = assay: NCI-60 SRB screen, breast cancer; assay type: cell-based; conditions: Homo sapiens; HS 578T; five dose 0.01–100 µM, 48 h; read-out: GI50
SF539 = assay: NCI-60 SRB screen, CNS cancer; assay type: cell-based, human; conditions: SF-539; one dose 10 µM, 48 h
K-562 = assay: NCI-60 SRB screen, leukemia; assay type: cell-based, human
SK-MEL-2 = assay: NCI-60 SRB screen, melanoma; assay type: cell-based, human; conditions: SK-MEL-2, 48 h
SK-MEL-28 = assay: NCI-60 SRB screen, melanoma; assay type: cell-based, human; conditions: SK-MEL-28, 48 h
OVCAR-4 = assay: NCI-60 SRB screen, ovarian cancer; assay type: cell-based, human; conditions: OVCAR-4, 48 h
UO-31 = assay: NCI-60 SRB screen, renal cancer; assay type: cell-based, human; conditions: UO-31, 48 h
NCI-H460 = assay: NCI-60 SRB screen, non-small cell lung cancer; assay type: cell-based, human; conditions: NCI-H460, 48 h
SNB-75 = assay: NCI-60 SRB screen, CNS cancer; assay type: cell-based, human; conditions: SNB-75, 48 h
HOP-62 = assay: NCI-60 SRB screen, non-small cell lung cancer; assay type: cell-based, human; conditions: HOP-62, 48 h
[2] = test system: NCI 60 human cancer cell line panel; assay: NCI 60 cell line screen (SRB), panel values
DU-145 = assay: NCI-60 SRB screen, prostate cancer; assay type: cell-based, human; conditions: DU-145, 48 h
MDA-MB-468 = assay: NCI-60 SRB screen, breast cancer; assay type: cell-based, human; conditions: MDA-MB-468, 48 h
HCT-116 = assay: NCI-60 SRB screen, colon cancer; assay type: cell-based, human; conditions: HCT-116, 48 h
HT29 = assay: NCI-60 SRB screen, colon cancer; assay type: cell-based, human; conditions: HT29, 48 h
BT-549 = assay: NCI-60 SRB screen, breast cancer; assay type: cell-based, human; conditions: BT-549, 48 h
SR = assay: NCI-60 SRB screen, leukemia; assay type: cell-based, human; conditions: 48 h
NCI-H552 = assay: NCI-60 SRB screen, non-small cell lung cancer; assay type: cell-based, human; conditions: 48 h
HL-60(TB) = assay: NCI-60 SRB screen, leukemia; assay type: cell-based, human; conditions: for GI50: Homo sapiens
RXF 393 = assay: NCI-60 SRB screen, renal cancer; assay type: cell-based, human; conditions: RXF 393, 48 h
[3] = Homo sapiens, five dose 0.01–100 µM, read-out: GI50

**Q.** How did the GI50 (SF295; Homo sapiens, SF295, five dose 0.01–100 µM, read-out: GI50) turn out when C=C(C)C1C(=O)N(c2cc(OC)c(OC)c(OC)c2)C1c1ccc(OC)c(O)c1 (stereo not shown) [9q, 4-(3-Hydroxy-4-methoxyphenyl)-1-(3,4,5-trimethoxyphenyl)-3-(prop-1-en-2-yl)azetidin-2-one] was run?
**A.** < 10 nM

**Q.** What about the “% Growth” value (SF295; one dose 10 µM) of the same compound?
**A.** 20.26%

**Q.** And the “Fold Reduction in Vmax” value [1]?
**A.** 4.27

**Q.** And the “% Growth” value (EKVX)?
**A.** 68.88%

**Q.** What about the GI50 (ACHN; [3]) of the same compound?
**A.** 21.3 nM

**Q.** And the “% Growth” value (ACHN; one dose 10 µM)?
**A.** 34.94%

**Q.** What about the GI50 (RPMI-8226; [3]) of the same compound?
**A.** 11.1 nM

**Q.** What about the “% Growth” value (RPMI-8226; one dose 10 µM) of the same compound?
**A.** 11.06%

**Q.** What about the GI50 (SN12C; [3]) of the same compound?
**A.** 37 nM

**Q.** And the “% Growth” value (SN12C; one dose 10 µM)?
**A.** 31.39%

**Q.** What about the GI50 (OVCAR-8; [3]) of the same compound?
**A.** < 10 nM

**Q.** What about the “% Growth” value (OVCAR-8; one dose 10 µM) of the same compound?
**A.** 14.64%

**Q.** What about the GI50 (SK-OV-3; [3]) of the same compound?
**A.** 30.4 nM

**Q.** And the “% Growth” value (SK-OV-3; one dose 10 µM)?
**A.** 8.15%

**Q.** What about the GI50 (HS 578T) of the same compound?
**A.** 10.6 nM

**Q.** And the “% Growth” value (SF539)?
**A.** -8.30%

**Q.** What about the GI50 (K-562; Homo sapiens, K562, 48 h, read-out: GI50) of the same compound?
**A.** 35.2 nM

**Q.** What about the “% Growth” value (K-562; K-562, one dose 10 µM, 48 h) of the same compound?
**A.** 2.20%

**Q.** What about the GI50 (SK-MEL-2; [3]) of the same compound?
**A.** 44.6 nM

**Q.** What about the “% Growth” value (SK-MEL-2; one dose 10 µM) of the same compound?
**A.** 9.55%

**Q.** What about the GI50 (SK-MEL-28; [3]) of the same compound?
**A.** 64300 nM

**Q.** And the “% Growth” value (SK-MEL-28; one dose 10 µM)?
**A.** 65.72%

**Q.** And the GI50 (OVCAR-4; [3])?
**A.** < 10 nM

**Q.** What about the “% Growth” value (OVCAR-4; one dose 10 µM) of the same compound?
**A.** 25.51%

**Q.** What about the GI50 (UO-31; [3]) of the same compound?
**A.** 87.8 nM

**Q.** And the “% Growth” value (UO-31; one dose 10 µM)?
**A.** 29.39%

**Q.** What about the GI50 (NCI-H460; [3]) of the same compound?
**A.** 30 nM

**Q.** What about the “% Growth” value (NCI-H460; one dose 10 µM) of the same compound?
**A.** 3.52%

**Q.** And the GI50 (SNB-75; [3])?
**A.** 47.3 nM

**Q.** And the “% Growth” value (SNB-75; one dose 10 µM)?
**A.** 41.90%

**Q.** And the “% Growth” value (HOP-62; one dose 10 µM)?
**A.** 22.22%

**Q.** And the GI50 (HOP-62; [3])?
**A.** 52.1 nM

**Q.** And the CC50 ([2]; Homo sapiens, 60 cell, 9 h, read-out: LC50)?
**A.** > 100000 nM

**Q.** And the GI50 ([2]; Homo sapiens, 60 cell, breast cancer cell lines MCF-7, MDA-MB-231, HS 578T, BT-549, MDA-MB-468)?
**A.** 10 to 16 nM

**Q.** What about the GI50 ([2]; Homo sapiens, 60 cell, in 48 of the panel cell lines tested) of the same compound?
**A.** < 50 nM

**Q.** And the CC50 ([2]; Homo sapiens, 60 cell, read-out: Mean LC50)?
**A.** 81300 nM

**Q.** What about the IC (TGI (total growth inhibition)) ([2]; Homo sapiens, 60 cell, read-out: Mean TGI) of the same compound?
**A.** 32400 nM

**Q.** And the GI50 in words ([2]; all cell lines investigated except T-47D)?
**A.** sub-micromolar

**Q.** What about the TGI ([2]; for 34 of the cell lines tested) of the same compound?
**A.** > 100000 nM

**Q.** What about the “% Growth, Delta” value ([2]; one dose 10 µM, 48 h) of the same compound?
**A.** 65.02%

**Q.** And the “% Growth, Range” value ([2]; one dose 10 µM, 48 h)?
**A.** 126.47%

**Q.** What about the “% Growth, Mean” value ([2]; one dose 10 µM, 48 h, all cell lines) of the same compound?
**A.** 13.02%

**Q.** And the “% Growth” value (DU-145; one dose 10 µM)?
**A.** -52.00%

**Q.** What about the GI50 (DU-145; [3]) of the same compound?
**A.** 21.5 nM

**Q.** And the GI50 (MDA-MB-468; [3])?
**A.** < 10 nM

**Q.** What about the “% Growth” value (MDA-MB-468; one dose 10 µM) of the same compound?
**A.** 13.36%

**Q.** And the “% Growth” value (HCT-116; one dose 10 µM)?
**A.** -10.74%

**Q.** What about the GI50 (HCT-116; [3]) of the same compound?
**A.** 14.9 nM

**Q.** And the “% Growth” value (HT29; one dose 10 µM)?
**A.** 2.66%

**Q.** And the GI50 (HT29; Homo sapiens, HT-29, five dose 0.01–100 µM, read-out: GI50)?
**A.** 187 nM

**Q.** And the “% Growth” value (BT-549; one dose 10 µM)?
**A.** -9.94%

**Q.** And the GI50 (BT-549; [3])?
**A.** 11 nM

**Q.** What about the GI50 (SR; [3]) of the same compound?
**A.** < 10 nM

**Q.** What about the “% Growth” value (SR; one dose 10 µM) of the same compound?
**A.** -2.84%

**Q.** And the GI50 (NCI-H552; Homo sapiens, NCI-H552, five dose 0.01–100 µM, read-out: GI50)?
**A.** < 10 nM

**Q.** And the “% Growth” value (NCI-H552; NCI-H522, one dose 10 µM)?
**A.** -43.45%

**Q.** And the “% Growth” value (HL-60(TB); HL-60(TB), one dose 10 µM, 48 h)?
**A.** -51.24%

**Q.** And the GI50 (HL-60(TB); HL-60(TB), five dose 0.01–100 µM, 48 h)?
**A.** 21.1 nM

**Q.** And the GI50 (HL-60(TB); HL-60, NCI screen)?
**A.** < 34 nM

**Q.** What about the GI50 (RXF 393; [3]) of the same compound?
**A.** 42.8 nM

**Q.** And the “% Growth” value (RXF 393; one dose 10 µM)?
**A.** 18.79%
